# From patent publication US20240148835A1, “TREATING DISORDERS ASSOCIATED WITH DYRK1A DYSFUNCTION” (UNIVERSITY OF FLORIDA RESEARCH FOUNDATION, INCORPORATED, priority 2021, published 2024)
# “Also recorded” adds a separate entry of the source.
# System: Dyrk1a cHets
# Test: Chronic (1-3)IGF-1 treatment from P14: behavioral battery
# Type: in vivo, mouse
# From the text: To determine whether chronic (1-3)IGF-1 administration ameliorates ASD-relevant behaviors, we conducted a behavioral battery to assay sociability and repetitive behaviors as well as locomotion, anxiety-like behavior, acoustic startle, and sensorimotor gating. […] Taken together, (1-3)IGF-1 treatment ameliorates morphological, neuronal, and behavioral deficits caused by cortical Dyrk1a mutations.
# (1-3)IGF-1 was acquired from VWR/Bachem (catalog #H-2468.1000) and dissolved in saline with 0.01% BSA fresh every day. Intraperitoneal injections of 10 mg kg′ (1-3)IGF-1 or vehicle were delivered daily at 8 a.m. starting on P14 and ending on P85. […] The S6K1 inhibitor PF-4708671 was acquired from Medkoo Biosciences (#406432) dissolved in 10% DMSO, 10% tween 80 and 80% water. (1-3)IGF-1 (10 mg kg′) and PF-4708671 (50 mg kg^−1) or vehicle were injected subcutaneously into pups from P0 to P7. Rapamycin was acquired from LC laboratories (R-5000) and dissolved in 4% ethanol, 5% tween-80, and 5% PEG400 in PBS. (1-3)IGF-1 (10 mg kg′) and Rapamycin (1 mg kg′) or vehicle were injected subcutaneously into pups from P0 to P7. SB216763 was acquired from TOCRIS (#1616) and dissolved in 5% DMSO and 0.9% saline in dH20. SB216763 (0.5 mg kg′) was injected subcutaneously into pups from P0 to P7.
# 3 chamber social approach: Briefly, after at least 2 weeks housing under reversed light cycle, each mouse was habituated in the three-chamber box for 5 minutes before a stimulus mouse was placed into a tube in the “social” chamber. The stimulus mice used were young adult male mice. The time spent in each chamber (“mouse+tube”, “empty tube”, “center”) was hand-scored for sniffing time using Boris.
# Marble burying: Male mice were placed individually in a cage with 5 cm of ¼″ corncob bedding and 20 black marbles (14.3 mm in diameter) arranged in a 4×5 matrix and left undisturbed for 30 min. The number of marbles that were at least two-thirds buried at the end of the trial were counted. […]
# [1] = 3-chamber social approach, cHets
substance,measurement,setting,value
"(1-3)IGF-1: a tripeptide cleaved from the N-terminus of IGF-1; acquired from VWR/Bachem, CAS No. 32302-76-4 (GPE; Insulin-like growth factor 1; UniProt P05019 49-51, looked up, fragment)",preference index,[1],restored
same,social interaction time (hand-scored),[1],increased
same,"social deficit of cHets (time interacting with stimulus mouse, preference index)","3-chamber social approach, cHets, daily from P14",restored this social deficit in cHets
same,sociability of controls,"3-chamber social approach, controls",did not impact controls
same,"preference for stimulus mouse vs inanimate object within group, 3-chamber social approach",all genotype X treatment groups,significant preference for interaction with a stimulus mouse; also recorded: significant preference for social interaction
same,number of marbles buried by cHets,"marble burying, cHets",no effect; also recorded: subtle modification of the phenotype
same,qualitative interaction with the marbles,"marble burying, cHets",qualitatively interaction with the marbles increased in cHets
